Results from US20250333509A1, “METHODS FOR TREATING CANCER, OR VON-HIPPEL LINDAU DISEASE USING A COMBINATION OF A TIGIT ANTAGONIST, A PD-1 ANTAGONIST, AND A HIF-2-ALPHA INHIBITOR” (MERCK SHARP & DOHME LLC, priority 2022, published 2025).

B1: Anti-PD-1 (antibody)
heavy: EVQLVESGGGLVQPGGSLKLSCAASGFTFSNSGLAWVRQAPEKGLEWVATITYNGTSTYYRDSVKGRFTISRDNAKNTLYLQMSSLRSEDTATYYCARWVPGSGNFDYWGQGTLVTVSSAKTTPPSVYPLAPGSAAQTNSMVTLGCLVKGYFPEPVTVTWNSGSLSSGVHTFPAVLQSDLYTLSSSVTVPSSTWPSETVTCNVAHPASSTKVDKKIVPRDCGCKPCICTVPEVSSVFIFPPKPKDVLTITLTPKVTCVVVAISKDDPEVQFSWFVDDVEVHTAQTQPREEQFNSTFRSVSELPIMHQDWLNGKEFKCRVNSAAFPAPIEKTISKTKGRPKAPQVYTIPPPKEQMAKDKVSLTCMITDFFPEDITVEWQWNGQPAENYKNTQPIMDTDGSYFVYSKLNVQKSNWEAGNTFTCSVLHEGLHNHHTEKSLSHSPGK
light: DIVLTQSPASLAVSLGQRATISCRASQSVTISRYTLMHWYQQKPGQPPKLLIYRASNLASGIPARFSGSGSGTDFTLNIHPVEEDDAATYYCQQSRESPWTFGGGTKLEIKRADAAPTVSIFPPSSEQLTSGGASVVCFLNNFYPKDINVKWKIDGSERQNGVLNSWTDQDSKDSTYSMSSTLTLTKDEYERHNSYTCEATHKTSTSPIVKSFNRNEC
B2: Anti-TIGIT (antibody)
heavy: QVQLMESGPGLVQPSQTLSLTCTVSGFPLTSYTVHWVRQPPGKGLEWIGAIWSSGSTDYNSALKSRLNINRDSSKSQVFLKMNSLQTEDTAIYFCTKSGWAFFDYWGQGVMVTVSSAKTTAPSVYPLAPVCGDTTGSSVTLGCLVKGYFPEPVTLTWNSGSLSSGVHTFPAVLQSDLYTLSSSVTVTSSTWPSQSITCNVAHPASSTKVDKKIEPRGPTIKPCPPCKCPAPNLLGGPSVFIFPPKIKDVLMISLSPIVTCVVVDVSEDDPDVQISWFVNNVEVHTAQTQTHREDYNSTLRVVSALPIQHQDWMSGKEFKCKVNNKDLPAPIERTISKPKGSVRAPQVYVLPPPEEEMTKKQVTLTCMVTDFMPEDIYVEWTNNGKTELNYKNTEPVLDSDGSYFMYSKLRVEKKNWVERNSYSCSVVHEGLHNHHTTKSFSRTPGK
light: DIQMTQSPSLLSASVGDRVTLNCIASQNIYKSLAWYQLKLGEAPKLLIYNANSLQAGIPSRFSGSGSGTDFALTISGLQPEDVATYFCQQYSGGYTFGAGTKLELKRADAAPTVSIFPPSSEQLTSGGASVVCFLNNFYPKDINVKWKIDGSERQNGVLNSWTDQDSKDSTYSMSSTLTLTKDEYERHNSYTCEATHKTSTSPIVKSFNRNEC

Columns and labels:
CT26 tumors = assay: CT26 mouse syngeneic tumor model: tumor growth inhibition and tumor regressions; assay type: in vivo; conditions: CT26 tumors in female BALB/cAnn mice, 10 per group, anti-PD-1 5 mg/kg ip every 5 days, anti-TIGIT 10 mg/kg ip every 5 days, belzutifan 3 mg/kg orally twice daily; for Tumor growth inhibition (TGI) % at Day 16: Day 16 when control animals exited study; for Number of complete tumor regressions (CRs) at end of study / Number of partial tumor regressions (PRs) at end of study: end of study (Day 43)
Source text: The present Example describes preclinical data using a TIGIT antagonist and a PD-1 antagonist in combination with belzutifan, using mouse syngeneic models.
Prior to treatment initiation, female BALB/cAnn mice aged 7 weeks weighing between 18 to 21 grams were anesthetized and injected subcutaneously into the rear flank with 0.3×10^6 log-phase sub-confluent CT26 cells. Mice were pair-matched into treatment groups consisting of 10 mice per group when the mean tumor volume of inoculated CT26 tumors reached approximately 150 mm^3.
Treatment groups consisted of: • 1) Isotype mouse IgG1 (mIgG1) antibody+Isotype mouse IgG2a (mIgG2a) antibody+0.5% methylcellulose (vehicle); • 2) anti-PD-1 mIgG1 antibody+Isotype mIgG2a antibody+vehicle; • 3) anti-TIGIT mIgG2a antibody+Isotype mIgG1 antibody+vehicle; • 4) Isotype mIgG1 antibody+Isotype mIgG2a antibody+belzutifan; • 5) anti-PD-1 mIgG1 antibody+anti-TIGIT mIgG2a antibody+vehicle; • 6) anti-PD-1 mIgG1 antibody+Isotype mIgG2a antibody+belzutifan; • 7) Isotype mIgG1 antibody+anti-TIGIT mIgG2a antibody+belzutifan; and • 8) anti-PD-1 mIgG1 antibody+anti-TIGIT mIgG2a antibody+belzutifan.
Isotype mIgG1 and anti-PD-1 antibodies were dosed intraperitoneally every 5 days at 5 mg/kg body weight. Isotype mIgG2a and anti-TIGIT antibodies were dosed intraperitoneally every 5 days at 10 mg/kg body weight. Belzutifan was dosed orally twice daily at 3 mg/kg body weight. Start of treatments was considered Day 0 and dosing based on schedules continued as described until Day 43. Caliper measurements of tumors and body weights were captured twice weekly. Statistical analyses were performed by 2-sided student t-test of final 2 groups at Day 43 when study ended.

[1] = tested on: RCC associated with VHL disease, CNS hemangioblastomas, pancreatic neuroendocrine tumors; conditions: cited from earlier work
[2] = AE profile of belzutifan; cited from earlier work
[3] = patients with RCC associated with VHL disease who received belzutifan

Molecule | Tumor growth inhibition (TGI) % at Day 16 (CT26 tumors) [%] | Number of complete tumor regressions (CRs) at end of study (CT26 tumors) | Number of partial tumor regressions (PRs) at end of study (CT26 tumors) | patients with a response after treatment ([1]; patients with CNS hemangioblastomas) [%] | patients with a confirmed objective response [1, 3] [%] | reduction in renal tumor size [1, 3] | patients who responded after treatment ([1]; patients with pancreatic neuroendocrine tumors) [%] | adverse events associated with treatment [2]
CS(=O)(=O)c1ccc(Oc2cc(F)cc(C#N)c2)c2c1[C@H](O)[C@H](F)[C@@H]2F [belzutifan, 3-[(1S,2S,3R)-2,3-Difluoro-1-hydroxy-7-methylsulfonyl-indan-4-yl]oxy-5-fluoro-benzonitrile] | 5.8 | 0 CRs, 0 PRs | 0 CRs, 0 PRs | 30 | 49 | most patients had a reduction in renal tumor size | 91 | anemia and hypoxia have been associated with belzutifan treatment
B1 | 4.8 | 0 | 1 | – | – | – | – | –
B2 | 47.4 | 0 CRs, 0 PRs | 0 CRs, 0 PRs | – | – | – | – | –
